Results reported in patent US11111245B2, “Derivatives of N-cycloalkyl/heterocycloalkyl-4-(imidazo[1,2-a]pyridine)pyrimidin-2-amine as therapeutic agents” (Aucentra Therapeutics Pty Ltd, priority 2017, dated 2021).

Assays:
CDK4/D1 = CDK4/D1 (Homo sapiens, UniProt P11802); assay: ADP Glo Kinase assay CDK4/D1; format: biochemical; conditions: CDK4D1; compound at 10 μM; read-out: residual activity (%) at 10 μM CDK4D1
Summary of the method: (§1)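 CDK4/D1 and CDK6/D3 were run in […] Tris pH 7.5, 20 mM MgCl2, 0.4 mM DTT, 0.1 mg/ml BSA with RB-CTF substrate; CDK9/T1 used RBER-IRStide. ATP-started reactions ran 40 min at 37° C, with ADP Glo luminescence read-out. IC50 came from 4-parameter fits; Ki from Km (ATP) and IC50.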

leukemia cell lines = assay: Resazurin cell viability assay on leukemia cell lines (72 h growth inhibition, GI50); format: cell-based; conditions: Homo sapiens, MV4-11 cells
Summary of the method: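 Solid tumour cells: MTT. Leukaemia cells: resazurin. GI50 fitted by non-linear regression.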

CDK6/D3 = CDK6/D3 (Homo sapiens, UniProt Q00534); assay: ADP Glo Kinase assay CDK6/D3; format: biochemical; conditions: CDK6D3; compound at 10 μM; read-out: residual activity (%) at 10 μM CDK6D3
CDK6/D3, sequence (Q00534 whole entry): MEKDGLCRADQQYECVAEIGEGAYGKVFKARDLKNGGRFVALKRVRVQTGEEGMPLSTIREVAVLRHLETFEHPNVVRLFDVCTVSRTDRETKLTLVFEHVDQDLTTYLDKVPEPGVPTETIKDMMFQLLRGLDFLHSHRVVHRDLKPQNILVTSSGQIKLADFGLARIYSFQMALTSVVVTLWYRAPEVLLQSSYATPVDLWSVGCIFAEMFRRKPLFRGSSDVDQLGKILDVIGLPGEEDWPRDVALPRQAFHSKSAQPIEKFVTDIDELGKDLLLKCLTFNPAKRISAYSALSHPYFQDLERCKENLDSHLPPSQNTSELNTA
CDK6/D3, sequence (P30281 whole entry partner): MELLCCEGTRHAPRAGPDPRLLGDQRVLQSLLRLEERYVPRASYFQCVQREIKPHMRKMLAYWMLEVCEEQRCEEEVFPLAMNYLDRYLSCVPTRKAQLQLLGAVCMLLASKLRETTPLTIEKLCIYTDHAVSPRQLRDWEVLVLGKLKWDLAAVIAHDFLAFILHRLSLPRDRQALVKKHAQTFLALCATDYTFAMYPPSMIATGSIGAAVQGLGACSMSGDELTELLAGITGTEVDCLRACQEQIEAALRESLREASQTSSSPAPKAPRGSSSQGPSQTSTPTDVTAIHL
Summary of the method: as §1

CDKs and other kinases [1] = molecular target: T1, CDKs and other kinases (Homo sapiens, UniProt P50613); assay: Radiometric kinase assay (Eurofins Pharma Discovery or Reaction Biology Corporation Kinase Profiler); format: biochemical; conditions: CDK7H; for Ki: read-out: CDK inhibition, Ki (μM) CDK7H; for remaining activity at 10 µM: compound at 10 μM, read-out: residual activity (%) at 10 μM CDK7H
T1 construct: other: CDK7H; residual activity (%) at 10 μM CDK7H; compound at 10 μM
T1 sequence (P50613 whole entry): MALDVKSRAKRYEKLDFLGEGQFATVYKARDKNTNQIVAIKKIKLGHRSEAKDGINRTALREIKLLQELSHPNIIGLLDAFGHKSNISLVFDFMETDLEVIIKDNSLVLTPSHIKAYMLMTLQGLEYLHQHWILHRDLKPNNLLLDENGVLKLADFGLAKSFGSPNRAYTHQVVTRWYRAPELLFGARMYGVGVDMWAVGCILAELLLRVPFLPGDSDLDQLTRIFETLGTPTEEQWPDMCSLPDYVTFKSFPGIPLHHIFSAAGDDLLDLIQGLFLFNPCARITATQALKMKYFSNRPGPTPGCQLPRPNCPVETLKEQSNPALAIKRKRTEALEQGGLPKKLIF
Summary of the method: (§2)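 Other CDKs and further kinases were profiled externally by radiometric assay. In-house ADP Glo assays covered CDK4/D1 and CDK6/D3 (RB-CTF substrate, pH 7.5 Tris buffer with MgCl2, DTT, BSA) and CDK9/T1 (RBER-IRStide substrate), 40 min at 37° C.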

CDKs and other kinases [2] = molecular target: T2, CDKs and other kinases (Homo sapiens, UniProt P24941); assay: as above; format: biochemical; conditions: CDK2A; for Ki: read-out: CDK inhibition, Ki (μM) CDK2A; for remaining activity at 10 µM: compound at 10 μM, read-out: residual activity (%) at 10 μM CDK2A
T2 construct: other: CDK2A; residual activity (%) at 10 μM CDK2A; compound at 10 μM
Summary of the method: as §2

CDKs and other kinases [3] = molecular target: T3, CDKs and other kinases (Homo sapiens, UniProt P06493); assay: as above; format: biochemical; conditions: CDK1B; for Ki: read-out: CDK inhibition, Ki (μM) CDK1B; for remaining activity at 10 µM: compound at 10 μM, read-out: residual activity (%) at 10 μM CDK1B
T3 construct: other: CDK1B; residual activity (%) at 10 μM CDK1B; compound at 10 μM
T3 sequence (P06493 whole entry): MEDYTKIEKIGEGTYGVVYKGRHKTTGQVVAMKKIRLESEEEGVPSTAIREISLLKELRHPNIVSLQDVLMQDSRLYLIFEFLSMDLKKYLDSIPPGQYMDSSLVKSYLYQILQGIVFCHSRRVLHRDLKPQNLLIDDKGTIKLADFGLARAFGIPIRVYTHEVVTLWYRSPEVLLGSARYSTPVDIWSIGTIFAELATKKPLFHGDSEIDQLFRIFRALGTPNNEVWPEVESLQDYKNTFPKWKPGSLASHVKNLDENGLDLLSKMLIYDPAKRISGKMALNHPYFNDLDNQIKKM
Summary of the method: as §2

CDK9/T1 = CDK9/T1 (Homo sapiens, UniProt P50750); assay: ADP Glo Kinase assay CDK9/T1; format: biochemical; conditions: CDK9T1; read-out: CDK inhibition, Ki (μM) CDK9T1
CDK9/T1, sequence (P50750 whole entry): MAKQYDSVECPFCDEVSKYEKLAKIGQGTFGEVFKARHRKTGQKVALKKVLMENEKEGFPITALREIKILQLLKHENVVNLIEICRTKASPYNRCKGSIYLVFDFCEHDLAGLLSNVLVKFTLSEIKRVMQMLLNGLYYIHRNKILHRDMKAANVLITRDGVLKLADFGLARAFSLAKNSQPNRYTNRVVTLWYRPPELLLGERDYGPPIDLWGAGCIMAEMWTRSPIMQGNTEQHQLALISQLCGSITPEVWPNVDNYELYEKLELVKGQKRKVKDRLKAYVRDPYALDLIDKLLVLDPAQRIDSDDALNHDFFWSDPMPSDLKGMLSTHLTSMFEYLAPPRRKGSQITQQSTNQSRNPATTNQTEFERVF
CDK9/T1, sequence (O60563 whole entry partner): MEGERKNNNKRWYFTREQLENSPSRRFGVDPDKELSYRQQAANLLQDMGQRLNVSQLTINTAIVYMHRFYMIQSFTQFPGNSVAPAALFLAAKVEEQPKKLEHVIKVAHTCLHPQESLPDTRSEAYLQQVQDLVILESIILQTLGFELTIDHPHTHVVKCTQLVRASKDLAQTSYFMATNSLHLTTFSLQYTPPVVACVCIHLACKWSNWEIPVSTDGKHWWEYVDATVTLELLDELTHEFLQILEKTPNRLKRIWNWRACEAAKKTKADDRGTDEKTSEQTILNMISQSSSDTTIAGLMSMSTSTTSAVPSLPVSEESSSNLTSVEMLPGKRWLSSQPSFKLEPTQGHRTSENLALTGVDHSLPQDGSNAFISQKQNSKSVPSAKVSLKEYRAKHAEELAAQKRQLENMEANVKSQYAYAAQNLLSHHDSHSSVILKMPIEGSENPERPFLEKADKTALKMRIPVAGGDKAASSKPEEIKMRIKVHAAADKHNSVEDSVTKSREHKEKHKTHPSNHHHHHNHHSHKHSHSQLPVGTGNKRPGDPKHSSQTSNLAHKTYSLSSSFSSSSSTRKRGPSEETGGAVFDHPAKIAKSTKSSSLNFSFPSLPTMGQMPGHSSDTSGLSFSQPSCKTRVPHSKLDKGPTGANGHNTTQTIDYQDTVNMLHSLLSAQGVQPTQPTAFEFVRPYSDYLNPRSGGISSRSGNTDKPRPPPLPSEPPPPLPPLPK
Summary of the method: as §1

CDK4/D1, sequence (P11802 whole entry): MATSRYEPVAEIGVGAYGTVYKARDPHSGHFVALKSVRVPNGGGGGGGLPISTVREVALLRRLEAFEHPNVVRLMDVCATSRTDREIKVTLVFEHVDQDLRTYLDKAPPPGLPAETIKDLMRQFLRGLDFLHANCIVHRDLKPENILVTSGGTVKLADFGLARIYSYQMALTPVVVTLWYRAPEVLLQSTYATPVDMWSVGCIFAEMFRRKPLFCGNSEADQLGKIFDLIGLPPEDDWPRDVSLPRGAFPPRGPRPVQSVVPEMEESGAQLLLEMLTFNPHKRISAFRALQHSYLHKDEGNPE
CDK4/D1, sequence (P24385 whole entry partner): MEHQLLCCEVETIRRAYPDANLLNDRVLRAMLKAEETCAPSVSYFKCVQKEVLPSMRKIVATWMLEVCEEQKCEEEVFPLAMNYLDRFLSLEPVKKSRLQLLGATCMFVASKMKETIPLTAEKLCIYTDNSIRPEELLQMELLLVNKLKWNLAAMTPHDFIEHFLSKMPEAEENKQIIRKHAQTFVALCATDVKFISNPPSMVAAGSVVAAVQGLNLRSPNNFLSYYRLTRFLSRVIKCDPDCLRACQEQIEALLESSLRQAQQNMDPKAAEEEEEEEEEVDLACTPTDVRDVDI

N[C@H]1CC[C@H](Nc2ncc(Cl)c(-c3cnc4ccccn34)n2)CC1 [Compound 42, (1r,4r)-N^1-(5-chloro-4-(imidazo[1,2-a]pyridin-3-yl)pyrimidin-2-yl)cyclohexane-1,4-diamine]
remaining activity at 10 µM (CDK4/D1): 0%
GI50 (leukemia cell lines): 0.007 ± 0.001 µM
remaining activity at 10 µM (CDK6/D3): 45%
Ki (CDKs and other kinases [1]): 0.024 µM
Ki (CDKs and other kinases [2]): 0.046 µM
Ki (CDKs and other kinases [3]): 0.46 µM
Ki (CDK9/T1): 0.061 µM

N[C@H]1CC[C@H](Nc2ncc(F)c(-c3cnc4cc(-c5ccccc5)ccn34)n2)CC1 [Compound 44, (1r,4r)-N^1-(5-Fluoro-4-(7-phenylimidazo[1,2-a]pyridin-3-yl)pyrimidin-2-yl)cyclohexane-1,4-diamine]
remaining activity at 10 µM (CDK4/D1): 2%
GI50 (leukemia cell lines): < 0.001 µM
remaining activity at 10 µM (CDK6/D3): 1%
remaining activity at 10 µM (CDKs and other kinases [1]): 2%
remaining activity at 10 µM (CDKs and other kinases [2]): 0%
remaining activity at 10 µM (CDKs and other kinases [3]): 0%
Ki (CDK9/T1): 0.007 µM

N[C@H]1CC[C@H](Nc2ncc(Cl)c(-c3cnc4ccc(-c5ccc(N6CCNCC6)nc5)cn34)n2)CC1 [Compound 84, (1r,4r)-N^1-(5-Chloro-4-(6-(6-(piperazin-1-yl)pyridin-3-yl)imidazo[1,2-a]pyridin-3-yl)pyrimidin-2-yl)cyclohexane-1,4-diamine]
remaining activity at 10 µM (CDK4/D1): 9%
GI50 (leukemia cell lines): 0.035 ± 0.006 µM
remaining activity at 10 µM (CDK6/D3): 12%
remaining activity at 10 µM (CDKs and other kinases [1]): 10%
remaining activity at 10 µM (CDKs and other kinases [2]): 39%
remaining activity at 10 µM (CDKs and other kinases [3]): 51%
Ki (CDK9/T1): 0.033 µM

N[C@H]1CC[C@H](Nc2ncc(F)c(-c3cnc4ccc(-c5ccccc5)cn34)n2)CC1 [Compound 5, (1r,4r)-N^1-(5-Fluoro-4-(6-phenylimidazo[1,2-a]pyridin-3-yl)pyrimidin-2-yl)cyclohexane-1,4-diamine]
remaining activity at 10 µM (CDK4/D1): 0%
GI50 (leukemia cell lines): 0.003 ± 0.001 µM
remaining activity at 10 µM (CDK6/D3): 16%
Ki (CDKs and other kinases [1]): 0.075 µM
Ki (CDKs and other kinases [2]): 0.006 µM
Ki (CDKs and other kinases [3]): 0.014 µM
Ki (CDK9/T1): 0.002 µM

CCOc1ccc(Nc2ccc3ncc(-c4nc(N[C@H]5CC[C@H](N)CC5)ncc4C)n3c2)cn1 [Compound 67, (1r,4r)-N^1-(4-(6-((6-Ethoxypyridin-3-yl)amino)imidazo [1,2-a]pyridin-3-yl)-5-methylpyrimidin-2-yl)cyclohexane-1,4-diamine]
remaining activity at 10 µM (CDK4/D1): 31%
GI50 (leukemia cell lines): 0.128 ± 0.04 µM
remaining activity at 10 µM (CDK6/D3): 29%
remaining activity at 10 µM (CDKs and other kinases [1]): 52%
remaining activity at 10 µM (CDKs and other kinases [2]): 10%
remaining activity at 10 µM (CDKs and other kinases [3]): 38%
Ki (CDK9/T1): 0.017 µM

Cc1cnc(N[C@]23C[C@@]4(C)C[C@](C)(C[C@](O)(C4)C2)C3)nc1-c1cnc2ccc(Nc3cccnc3)cn12 [Compound 101, (1s,3R,5S,7r)-3,5-Dimethyl-7-((5-methyl-4-(6-(pyridin-3-ylamino)imidazo[1,2-a]pyridin-3-yl)pyrimidin-2-yl)amino)adamantan-1-ol]
remaining activity at 10 µM (CDK4/D1): 97%
GI50 (leukemia cell lines): > 10 µM
remaining activity at 10 µM (CDK6/D3): 100%
remaining activity at 10 µM (CDKs and other kinases [1]): 85%
remaining activity at 10 µM (CDKs and other kinases [2]): 41%
remaining activity at 10 µM (CDKs and other kinases [3]): 60%
Ki (CDK9/T1): 0.561 µM

N[C@H]1CC[C@H](Nc2ncc(Cl)c(-c3cnc4c(-c5cccnc5)cc(C(F)(F)F)cn34)n2)CC1 [Compound 86, (1r,4r)-N^1-(5-Chloro-4-(8-(pyridin-3-yl)-6-(trifluoromethyl)imidazo[1,2-a]pyridin-3-yl)pyrimidin-2-yl)cyclohexane-1,4-diamine]
remaining activity at 10 µM (CDK4/D1): 25%
GI50 (leukemia cell lines): 0.086 ± 0.005 µM
remaining activity at 10 µM (CDK6/D3): 47%
Ki (CDKs and other kinases [1]): 0.044 µM
Ki (CDKs and other kinases [2]): 0.25 µM
Ki (CDKs and other kinases [3]): 2.64 µM
Ki (CDK9/T1): 0.216 µM

Cc1cnc(N[C@H]2CC[C@H](N)CC2)nc1-c1cnc2cc(-c3ccccc3)ccn12 [Compound 53, (1r,4r)-N^1-(5-Methyl-4-(7-phenylimidazo[1,2-a]pyridin-3-yl)pyrimidin-2-yl)cyclohexane-1,4-diamine]
remaining activity at 10 µM (CDK4/D1): 0%
GI50 (leukemia cell lines): 0.002 ± 0.001 µM
remaining activity at 10 µM (CDK6/D3): 0%
remaining activity at 10 µM (CDKs and other kinases [1]): 5%
remaining activity at 10 µM (CDKs and other kinases [2]): 3%
remaining activity at 10 µM (CDKs and other kinases [3]): 18%
Ki (CDK9/T1): 0.049 µM

Cc1cnc(N[C@H]2CC[C@H](N)CC2)nc1-c1cnc2cc(-c3cccnc3)ccn12 [Compound 54, (1r,4r)-N^1-(5-Methyl-4-(7-(pyridin-3-yl)imidazo[1,2-a]pyridin-3-yl)pyrimidin-2-yl)cyclohexane-1,4-diamine]
remaining activity at 10 µM (CDK4/D1): 0%
GI50 (leukemia cell lines): 0.018 ± 0.004 µM
remaining activity at 10 µM (CDK6/D3): 0%
remaining activity at 10 µM (CDKs and other kinases [1]): 6%
remaining activity at 10 µM (CDKs and other kinases [2]): 5%
remaining activity at 10 µM (CDKs and other kinases [3]): 29%
Ki (CDK9/T1): 0.11 µM

N[C@H]1CC[C@H](Nc2ncc(F)c(-c3cnc4cc(-c5cccnc5)ccn34)n2)CC1 [Compound 45, (1r,4r)-N^1-(5-Fluoro-4-(7-(pyridin-3-yl)imidazo[1,2-a]pyridin-3-yl)pyrimidin-2-yl)cyclohexane-1,4-diamine]
remaining activity at 10 µM (CDK4/D1): 5%
GI50 (leukemia cell lines): < 0.001 µM
remaining activity at 10 µM (CDK6/D3): 0%
remaining activity at 10 µM (CDKs and other kinases [1]): 2%
remaining activity at 10 µM (CDKs and other kinases [2]): 0%
remaining activity at 10 µM (CDKs and other kinases [3]): 0%
Ki (CDK9/T1): 0.006 µM

N[C@H]1CC[C@H](Nc2ncc(Cl)c(-c3cnc4ccc(-c5cncnc5)cn34)n2)CC1 [Compound 38, (1r,4r)-N^1-(5-Chloro-4-(6-(pyrimidin-5-yl)imidazo[1,2-a]pyridin-3-yl)pyrimidin-2-yl)cyclohexane-1,4-diamine]
remaining activity at 10 µM (CDK4/D1): 0%
GI50 (leukemia cell lines): 0.052 ± 0.011 µM
remaining activity at 10 µM (CDK6/D3): 80%
Ki (CDKs and other kinases [1]): 0.58 µM
Ki (CDKs and other kinases [2]): 0.91 µM
Ki (CDKs and other kinases [3]): 2.56 µM
Ki (CDK9/T1): 0.065 µM

N[C@H]1CC[C@H](Nc2ncc(F)c(-c3cnc4ccc(NC(=O)Cc5ccccc5)cn34)n2)CC1 [Compound 52, N-(3-(2-(((1r,4r)-4-Aminocyclohexyl)amino)-5-fluoropyrimidin-4-yl)imidazo[1,2-a]pyridin-6-yl)-2-phenylacetamide]
remaining activity at 10 µM (CDK4/D1): 4%
GI50 (leukemia cell lines): 0.008 ± 0.003 µM
remaining activity at 10 µM (CDK6/D3): 21%
remaining activity at 10 µM (CDKs and other kinases [1]): 6%
remaining activity at 10 µM (CDKs and other kinases [2]): 7%
remaining activity at 10 µM (CDKs and other kinases [3]): 6%
Ki (CDK9/T1): 0.013 µM

Cc1cnc(N[C@H]2CC[C@H](NC3CCN(C)CC3)CC2)nc1-c1cnc2ccc(-c3ccccc3)cn12 [Compound 90, (1r,4r)-N^1-(5-Methyl-4-(6-phenylimidazo[1,2-a]pyridin-3-yl)pyrimidin-2-yl)-N4-(1-methylpiperidin-4-yl) cyclohexane-1,4-diamine]
remaining activity at 10 µM (CDK4/D1): 24%
GI50 (leukemia cell lines): 0.229 ± 0.015 µM
remaining activity at 10 µM (CDK6/D3): 80%
residual activity at 10 µM (CDKs and other kinases [1]): 295%
remaining activity at 10 µM (CDKs and other kinases [2]): 44%
remaining activity at 10 µM (CDKs and other kinases [3]): 57%
Ki (CDK9/T1): 0.211 µM

Cc1cnc(N[C@H]2CC[C@H](N)CC2)nc1-c1cnc2ccc(-c3c(C)noc3C)cn12 [Compound 59, (1r,4r)-N^1-(4-(6-(3,5-Dimethylisoxazol-4-yl)imidazo [1,2-a]pyridin-3-yl)-5-methylpyrimidin-2-yl) cyclohexane-1,4-diamine]
remaining activity at 10 µM (CDK4/D1): 55%
GI50 (leukemia cell lines): 0.274 ± 0.064 µM
remaining activity at 10 µM (CDK6/D3): 91%
Ki (CDKs and other kinases [1]): 2.39 µM
Ki (CDKs and other kinases [2]): 0.92 µM
Ki (CDKs and other kinases [3]): 2.68 µM
Ki (CDK9/T1): 0.072 µM

Cc1cnc(N[C@H]2CC[C@H](N)CC2)nc1-c1cnc2ccc(-c3cccnc3)cn12 [Compound 29, (1r,4r)-N^1-(5-Methyl-4-(6-(pyridin-3-yl)imidazo[1,2-a]pyridin-3-yl)pyrimidin-2-yl)cyclohexane-1,4-diamine]
remaining activity at 10 µM (CDK4/D1): 17%
GI50 (leukemia cell lines): 0.101 ± 0.039 µM
remaining activity at 10 µM (CDK6/D3): 45%
Ki (CDKs and other kinases [1]): 2.73 µM
Ki (CDKs and other kinases [2]): 1.83 µM
Ki (CDKs and other kinases [3]): 3.57 µM
Ki (CDK9/T1): 0.051 µM

Cc1cnc(N[C@H]2CC[C@H](O)CC2)nc1-c1cnc2ccccn12 [Compound 107, (1r,4r)-4-((4-(Imidazo[1,2-a]pyridin-3-yl)-5-methylpyrimidin-2-yl)amino)cyclohexan-1-ol]
remaining activity at 10 µM (CDK4/D1): 37%
GI50 (leukemia cell lines): 1.42 ± 0.652 µM
remaining activity at 10 µM (CDK6/D3): 54%
remaining activity at 10 µM (CDKs and other kinases [1]): 34%
remaining activity at 10 µM (CDKs and other kinases [2]): 5%
remaining activity at 10 µM (CDKs and other kinases [3]): 47%
Ki (CDK9/T1): 0.161 µM
